The values that follow are results of earlier work, collected in patent publication US20090035369A1, “Composition and Methods for Treating and Preventing Age-Related Macular Degeneration” (priority 2006, published 2009).

The test system of series [1] is neovascularization. Conditions: rodent model.
The conditions of series [2]: pure DIM.
For series [3] the following is noted: pure DIM. The source holds these as a separate data set.

In the case of `c1ccc2c(Cc3c[nH]c4ccccc34)c[nH]c2c1` [DIM, 3,3′-diindolylmethane], the inhibition of neovascularization entry in series [1] is reported as “up to 76%”. For the same molecule, the solubility entry in series [2] is on record as “insoluble”. Besides, the “absorption by the human body” value in series [3] is listed as “poorly absorbed”.
